Reference: US20220193085A1, “METHODS OF THROMBOPROPHYLAXIS” (JANSSEN PHARMACEUTICALS, INC., priority 2020, published 2022)
“And” between values parts separate entries of the source, which are not always exact repeats. Identical values can stand only once.

How the values were obtained:
factor Xa = assay: UNIVERSE PK/PD: anti-Factor Xa activity vs plasma rivaroxaban concentration; format: in vivo, pediatric patients
Description: PT and aPTT were determined using an electromagnetic mechanical clot detection method at ARUP laboratory (Salt Lake City, Utah, USA). The PT assay was performed according to the manufacturers' instructions on the STA Compact Hemostasis Workstation (STA Compact coagulation analyzer) using one PT reagent (STA-Neoplastine CI Plus, Diagnostica Stago, Inc), with an International Sensitivity Index (ISI) of around 1.3. The primary read-out for PT was in seconds, as the International Normalization Ratio (INR) which allows for comparison of PT values regardless of the reagents and instruments used for its determination, is only calibrated and validated for VKA and cannot be used for any other anticoagulant without validation. The PT reportable range is between 10 and 120 seconds. […] The read-out for aPTT is in seconds with a reportable range between 5 and 180 seconds. Anti-Factor Xa activity was determined at Eurofins Biomnis (France). Anti-Factor Xa activity was measured using a one-step reaction based on the inhibitory effect of rivaroxaban against factor Xa's activity of generating thrombin from prothrombin after adding rivaroxaban into the plasma-substrate mixture using the STA-COMPACT MAX2® system (Diagnostica Stago, Asnieres-sur-Seine, France). […] The calibration range of the assay is 35 to 500 ng/mL, and the lower limit of quantification (LLOQ) is 35 ng rivaroxaban/mL. […]

[1] = UNIVERSE adverse events, serious adverse events and treatment discontinuation; format: in vivo, pediatric patients
Excerpt: Other safety outcomes: Any adverse events and serious adverse events (SAES).

[2] = 10 mg QD, N=140, cited from earlier work
[3] = UNIVERSE primary efficacy outcome: any thrombotic event (CIAC adjudicated); format: in vivo, pediatric patients; conditions: Part A N=12; up to end of treatment; full analysis set
clinical = conditions: human, plasma, oral
Description: Rivaroxaban was administered twice daily (BID) in an open-label fashion as a 0.1% (1 mg/mL) oral suspension based on weight as shown in Table 2 (not related to prandial state).
Blood samples were collected for PK (i.e., plasma rivaroxaban concentrations) and full PD (prothrombin time [PT], activated partial thromboplastin time [aPTT], and anti-factor Xa activity) assessments on the first day of dosing between 0.5 to 1.5 hours and again between 1.5 to 4.0 hours postdose. Additional samples were collected on Day 4, just prior to rivaroxaban administration (PK, PT, aPTT) and again between 0.5 to 1.5 hours (PK, PT, aPTT), 1.5 to 4.0 hours (PK, PT, aPTT), and 6.0 to 8.0 hours (PK and full PD) postdose. At Month 3, samples were collected just prior to rivaroxaban dosing (PK and full PD) and at 0.5 to 1.5 hours postdose (PK, PT, aPTT) and 2.5 to 4 hours postdose (PK, PT, aPTT). An additional random sample (PK, PT, and aPTT) was collected at Month 12.
In Part B, blood samples were collected for assessment of PT and aPTT before the first dosing; PK and full PD samples were collected between 0.5 to 1.5 hours and again between 1.5 to 4.0 hours after the first dose. At Month 3, PK and full PD samples were collected just prior to rivaroxaban administration and again between 0.5 to 1.5 hours, and 2.5 to 4.0 hours postdose. An additional random sample (PK, PT, and aPTT) was collected at Month 12.
Blood samples for PK or PD assays were centrifuged, and the resulting plasma samples were frozen and stored below −15° C. until analyzed. Rivaroxaban plasma concentrations were determined using the validated liquid chromatography/mass spectrometry/mass spectrometry (LC-MS/MS) method with a lower limit of quantitation (LLOQ) of 0.5 μg/L. The pharmacodynamic effects of rivaroxaban were assessed by evaluation of prothrombin time (PT), activated partial thromboplastin time (aPTT), and anti-Factor Xa activity (AXA).
Patients in Part A received their first dose of rivaroxaban oral suspension on Day 1 (on site) and then continued taking rivaroxaban twice daily for 12 days (+9 days) to achieve steady state. PK and PD samples were collected on Day 1 and Day 4 (+2 days) of rivaroxaban administration (Table 3).
Part A, individual empirical Bayesian post-hoc PK parameters were derived using the existing population PK model from the Einstein Jr program (with the NONMEM option: $ESTIMATION MAXEVAL=0).
The population PK model used for the rivaroxaban PK profile evaluation was based on the Einstein Jr program. The pharmacokinetics of rivaroxaban were described by a linear two-compartment model with first-order oral absorption and first-order elimination from the central compartment with the absorption rate constant (KA), apparent clearance of the central compartment (CL/F), apparent central volume of distribution (Vc/F), apparent peripheral volume of distribution (Vp/F), and transport rate between the central and peripheral compartments (CI) as structural model parameters. CL/F, Q/F, Vp/F, and Vc/F were fig. allometrically scaled with body weight. Inter-individual variability (IIV) was identified for KA and CL/F. Residual error was described by a proportional error model.

[4] = Benefit-risk assessment: excess number of events per 1,000 subjects, Part B rivaroxaban vs aspirin
Description: Benefit-risk balance was assessed using excess number of events defined as the absolute proportion difference between the Part B rivaroxaban and aspirin groups scaled to 1,000 subjects to reflect benefits and risks on a population level.

[5] = Part A N=12, treatment-emergent, safety set
[6] = Part B rivaroxaban N=64, aspirin N=34, safety set
[7] = Part B rivaroxaban N=64, aspirin N=34, treatment-emergent, safety set
[8] = Part B rivaroxaban N=64, aspirin N=34, up to end of treatment, full analysis set
[9] = Part B rivaroxaban minus aspirin, up to end of treatment, full analysis set
[10] = Part B rivaroxaban vs aspirin, negative values favor rivaroxaban
[11] = Part B rivaroxaban vs aspirin, positive values favor aspirin
[12] = for 1,000 subjects treated with rivaroxaban

**Q.** For `O=C(NC[C@H]1CN(c2ccc(N3CCOCC3=O)cc2)C(=O)O1)c1ccc(Cl)s1` [Rivaroxaban, 5-chloro-N-({(5S)-2-oxo-3-[4-(3-oxo-4-morpholinyl)phenyl]-1,3,oxazolidin-5-yl}methyl)-2-thiophenecarboxamide], which “Correlation (r) of anti-factor Xa with rivaroxaban plasma concentrations” value (factor Xa; UNIVERSE Part A) is on record?
**A.** 0.932

**Q.** And the “R-squared of anti-factor Xa activity vs plasma rivaroxaban concentrations” value (factor Xa; UNIVERSE study)?
**A.** 0.901

**Q.** What about the “AEs related to Study Agent, n (%)” value ([1]; Part A N=12, safety set) of the same compound?
**A.** 3 (25.0%)

**Q.** And the “SAEs related to Study Agent, n (%)” value ([1]; Part A N=12, safety set)?
**A.** 0

**Q.** What about the “TEAEs resulting in Permanent Discontinuation of Study Agent, n (%)” value ([1]; Part A N=12, safety set) of the same compound?
**A.** 0

**Q.** And the “Adverse event: Pleural Effusion, % of participants” value [1, 5]?
**A.** (25%)

**Q.** And the “Adverse event: Pleural Effusion, n (%)” value [1, 5]?
**A.** 3

**Q.** And the “All TESAEs (subjects with 1 or more serious adverse events), % of subjects” value [1, 5]?
**A.** (50%)

**Q.** And the “Serious adverse event: Infections, % of participants” value [1, 5]?
**A.** (25%)

**Q.** What about the “Serious adverse event: Infections, n (%)” value [1, 5] of the same compound?
**A.** 3

**Q.** What about the “Serious adverse event: Pleural Effusion, % of participants” value [1, 5] of the same compound?
**A.** (17%)

**Q.** What about the “Serious adverse event: Pleural Effusion, n (%)” value [1, 5] of the same compound?
**A.** 2

**Q.** And the “Serious adverse event: Respiratory, Thoracic, and Mediastinal Disorders, % of participants” value [1, 5]?
**A.** (17%)

**Q.** What about the “Serious adverse event: Respiratory, Thoracic, and Mediastinal Disorders, n (%)” value [1, 5] of the same compound?
**A.** 2

**Q.** What about the “TEAE: Gastrointestinal Disorders, n (%)” value [1, 5] of the same compound?
**A.** 6

**Q.** What about the “TEAE: General Disorders and Administration Site Conditions, n (%)” value [1, 5] of the same compound?
**A.** 1

**Q.** What about the “TEAE: Injury, Poisoning, and Procedural Complications, n (%)” value [1, 5] of the same compound?
**A.** 4

**Q.** And the “TEAE: Respiratory, Thoracic, and Mediastinal Disorders, n (%)” value [1, 5]?
**A.** 5

**Q.** What about the “TEAE: Skin and Subcutaneous Tissue Disorders, n (%)” value [1, 5] of the same compound?
**A.** 3

**Q.** What about the “TEAE: Vascular Disorders, n (%)” value [1, 5] of the same compound?
**A.** 2

**Q.** And the “Study treatment discontinued due to adverse event of mood disturbance, subjects n (%)” value ([1]; Part B rivaroxaban N=64)?
**A.** 1 (1.6%)

**Q.** What about the “AEs related to Study Agent, n (%)” value [1, 6] of the same compound?
**A.** 20 (31.3%)

**Q.** What about the “SAEs related to Study Agent, n (%)” value [1, 6] of the same compound?
**A.** 1 (1.6%)

**Q.** And the “TEAEs resulting in Permanent Discontinuation of Study Agent, n (%)” value [1, 6]?
**A.** 2 (3.1%)

**Q.** What about the “All TEAEs (subjects with 1 or more), n (%)” value [1, 7] of the same compound?
**A.** 55 (85.9%) and 55 (86%)

**Q.** And the “All TESAEs (subjects with 1 or more serious adverse events), n (%)” value [1, 7]?
**A.** 18 (28.1%) and 18 (28%)

**Q.** And the “Serious adverse event: Infections, n (%)” value [1, 7]?
**A.** 5 (8%)

**Q.** What about the “Serious adverse event: Pleural Effusion, n (%)” value [1, 7] of the same compound?
**A.** 9 (14%)

**Q.** What about the “Serious adverse event: Respiratory, Thoracic, and Mediastinal Disorders, n (%)” value [1, 7] of the same compound?
**A.** 9 (14%)

**Q.** And the “TEAE: Gastrointestinal Disorders, n (%)” value [1, 7]?
**A.** 19 (29.7%) and 19 (30%)

**Q.** What about the “TEAE: General Disorders and Administration Site Conditions, n (%)” value [1, 7] of the same compound?
**A.** 17 (26.6%) and 17 (27%)

**Q.** And the “TEAE: Injury, Poisoning, and Procedural Complications, n (%)” value [1, 7]?
**A.** 18 (28.1%) and 18 (28%)

**Q.** And the “TEAE: Respiratory, Thoracic, and Mediastinal Disorders, n (%)” value [1, 7]?
**A.** 29 (45.3%) and 29 (45%)

**Q.** What about the “TEAE: Skin and Subcutaneous Tissue Disorders, n (%)” value [1, 7] of the same compound?
**A.** 19 (29.7%) and 19 (30%)

**Q.** And the “TEAE: Vascular Disorders, n (%)” value [1, 7]?
**A.** 3 (4.7%) and 3 (5%)

**Q.** And the “SAEs, % of subjects” value [1, 8]?
**A.** (28.1%)

**Q.** And the “SAEs, No. of subjects with event” value [1, 8]?
**A.** 18/64

**Q.** And the New safety signals ([1]; UNIVERSE study)?
**A.** no new safety signals

**Q.** And the “AUC24h,ss geometric mean (90% CI)” value ([2]; Adult reference ODIXa-HIP-OD)?
**A.** 1494 ng·h/mL

**Q.** And the “AUC24h,ss median (range)” value ([2]; Adult reference)?
**A.** 1452 ng·h/mL

**Q.** And the “Cmax,ss geometric mean (90% CI)” value ([2]; Adult reference)?
**A.** 125.8 ng/mL

**Q.** What about the “Cmax,ss median (range)” value ([2]; Adult reference) of the same compound?
**A.** 127.6 ng/mL

**Q.** And the “Ctrough,ss geometric mean (90% CI)” value ([2]; Adult reference)?
**A.** 13.9 ng/mL

**Q.** And the “Ctrough,ss median (range)” value ([2]; Adult reference)?
**A.** 14.3 ng/mL

**Q.** What about the “Arterial/intracardiac thrombosis, subjects n (%)” value [3] of the same compound?
**A.** 0

**Q.** What about the “Primary efficacy outcome (any thrombotic event), subjects n (%)” value [3] of the same compound?
**A.** 1 (8.3%) and 1 (8%)

**Q.** And the “Pulmonary embolism, subjects n (%)” value [3]?
**A.** 0

**Q.** And the AUC(0-t) (clinical)?
**A.** 1480 ng·h/mL

**Q.** What about the Cmax (clinical) of the same compound?
**A.** 124 ng/mL

**Q.** What about the “Excess number of events: CRNM bleeding” value [4, 9] of the same compound?
**A.** −25.7 events per 1,000 subjects

**Q.** And the “Excess number of events: SAEs” value [4, 9]?
**A.** 46.0 events per 1,000 subjects

**Q.** What about the “Excess number of events: all-cause mortality” value [4, 9] of the same compound?
**A.** 0.0 events per 1,000 subjects

**Q.** And the “Excess number of events: any thrombotic event (primary efficacy outcome)” value [4, 9]?
**A.** −72.6 events per 1,000 subjects

**Q.** What about the “Excess number of events: arterial/intracardiac thrombosis” value [4, 9] of the same compound?
**A.** 0.0 events per 1,000 subjects

**Q.** What about the “Excess number of events: fall in hemoglobin ≥2 g/dL or transfusion of the equivalent ≥2 units” value [4, 9] of the same compound?
**A.** 15.6 events per 1,000 subjects

**Q.** What about the “Excess number of events: fatal or critical site bleeding” value [4, 9] of the same compound?
**A.** 0.0 events per 1,000 subjects

**Q.** What about the “Excess number of events: ischemic stroke” value [4, 9] of the same compound?
**A.** −29.4 events per 1,000 subjects

**Q.** What about the “Excess number of events: major and clinically relevant non-major bleeding” value [4, 9] of the same compound?
**A.** −10.1 events per 1,000 subjects

**Q.** What about the “Excess number of events: major bleeding (primary safety outcome)” value [4, 9] of the same compound?
**A.** 15.6 events per 1,000 subjects

**Q.** What about the “Excess number of events: pulmonary embolism” value [4, 9] of the same compound?
**A.** 15.6 events per 1,000 subjects

**Q.** What about the “Excess number of events: trivial (minimal) bleeding” value [4, 9] of the same compound?
**A.** −24.8 events per 1,000 subjects

**Q.** What about the “Excess number of events: venous thromboembolism” value [4, 9] of the same compound?
**A.** −43.2 events per 1,000 subjects

**Q.** And the “Excess number of events: venous thrombosis” value [4, 9]?
**A.** −58.8 events per 1,000 subjects

**Q.** What about the “NNH: CRNM bleeding” value [4, 10] of the same compound?
**A.** −39

**Q.** What about the “NNH: major and clinically relevant non-major bleeding” value [4, 10] of the same compound?
**A.** −99

**Q.** What about the “NNH: trivial (minimal) bleeding” value [4, 10] of the same compound?
**A.** −41

**Q.** What about the “NNT: any thrombotic event (primary efficacy outcome)” value [4, 10] of the same compound?
**A.** −14

**Q.** And the “NNT: ischemic stroke” value [4, 10]?
**A.** −34

**Q.** And the “NNT: venous thromboembolism” value [4, 10]?
**A.** −24

**Q.** And the “NNT: venous thrombosis” value [4, 10]?
**A.** −17

**Q.** And the “NNH: SAEs” value [4, 11]?
**A.** 21

**Q.** What about the “NNH: fall in hemoglobin ≥2 g/dL or transfusion of the equivalent ≥2 units” value [4, 11] of the same compound?
**A.** 64

**Q.** What about the “NNH: major bleeding (primary safety outcome)” value [4, 11] of the same compound?
**A.** 64

**Q.** What about the “NNT: pulmonary embolism” value [4, 11] of the same compound?
**A.** 64

**Q.** What about the “Less events of clinically relevant non-major bleeding expected than with aspirin” value [4, 12] of the same compound?
**A.** 25 events

**Q.** What about the “More events of ISTH major bleeding expected than with aspirin” value [4, 12] of the same compound?
**A.** 16 events

**Q.** What about the “Thrombotic events (primary efficacy outcome) expected to be prevented compared with aspirin” value [4, 12] of the same compound?
**A.** 73 events
